Measured values as given in ChEMBL document CHEMBL4411274, “Recent advances of tetrazole derivatives as potential anti-tubercular and anti-malarial agents” (Eur J Med Chem, 2019).
In brackets after ≈: the same amount, converted by molar mass.

Assays:
Falcipain 2 = molecular target: T1, Falcipain 2 (Plasmodium falciparum, UniProt Q9N6S8); experiment: Inhibition of Plasmodium falciparum falcipain-2 preincubated for 30 mins followed by Z-Leu-Arg-AMC substrate addition and measured up to 15 mins by spectrofluorometric analysis
T1 sequence (Q9N6S8 whole entry): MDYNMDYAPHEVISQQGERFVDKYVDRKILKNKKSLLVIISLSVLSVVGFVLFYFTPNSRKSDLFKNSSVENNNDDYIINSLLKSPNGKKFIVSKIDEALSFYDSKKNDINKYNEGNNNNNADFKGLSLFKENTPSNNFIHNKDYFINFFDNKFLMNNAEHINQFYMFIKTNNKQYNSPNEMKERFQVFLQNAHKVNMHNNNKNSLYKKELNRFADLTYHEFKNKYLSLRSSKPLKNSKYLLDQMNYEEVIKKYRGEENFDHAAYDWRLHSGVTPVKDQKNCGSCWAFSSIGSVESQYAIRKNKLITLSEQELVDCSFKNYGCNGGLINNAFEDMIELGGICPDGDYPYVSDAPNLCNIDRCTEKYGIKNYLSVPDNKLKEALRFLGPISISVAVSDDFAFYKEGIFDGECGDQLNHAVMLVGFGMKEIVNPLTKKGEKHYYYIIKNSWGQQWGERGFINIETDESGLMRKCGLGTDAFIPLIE

[1] = molecular target: T2, Cysteine protease falcipain-3 (Plasmodium falciparum, UniProt Q9NAW4); experiment: Inhibition of Plasmodium falciparum falcipain-3 preincubated for 30 mins followed by Z-Leu-Arg-AMC substrate addition and measured up to 15 mins by spectrofluorometric analysis
T2 sequence (Q9NAW4 whole entry): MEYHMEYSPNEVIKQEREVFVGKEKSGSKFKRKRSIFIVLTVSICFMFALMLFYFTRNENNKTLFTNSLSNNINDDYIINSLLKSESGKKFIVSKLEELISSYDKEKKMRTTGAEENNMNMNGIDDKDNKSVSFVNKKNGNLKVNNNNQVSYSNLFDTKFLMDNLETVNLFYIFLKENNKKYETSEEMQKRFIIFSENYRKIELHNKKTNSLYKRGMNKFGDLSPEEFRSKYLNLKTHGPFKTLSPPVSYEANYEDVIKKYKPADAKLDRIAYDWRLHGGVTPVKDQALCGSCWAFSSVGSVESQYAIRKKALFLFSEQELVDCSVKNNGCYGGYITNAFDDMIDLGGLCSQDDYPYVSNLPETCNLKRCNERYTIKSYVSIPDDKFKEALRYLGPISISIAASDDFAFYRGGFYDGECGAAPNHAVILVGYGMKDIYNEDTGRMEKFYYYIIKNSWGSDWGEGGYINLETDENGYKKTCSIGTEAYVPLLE

Plasmodium falciparum [2] = experiment: Antimalarial activity against Plasmodium falciparum K2 infected in human erythrocytes assessed as parasitemia after 48 hrs by YOYO-1 staining-based flow cytometric analysis; format: functional, organism-based; conditions: K2, 48 h
[3] = tested on: Mycobacterium tuberculosis; experiment: Antibacterial activity against Mycobacterium tuberculosis CNCTC My 331/88; format: functional
Mycobacterium kansasii [4] = experiment: Antibacterial activity against Mycobacterium kansasii CNCTC My 235/80; format: functional
Mycobacterium avium = experiment: Antibacterial activity against Mycobacterium avium CNCTC My 330/88; format: functional
Mycobacterium kansasii [5] = experiment: Antibacterial activity against Mycobacterium kansasii isolate 6509/96; format: functional
CHO-K1 = experiment: Cytotoxicity against CHOK1 cells after 24 hrs by MTT assay; format: cell-based; conditions: Cricetulus griseus, CHO-K1, 24 h
[6] = tested on: Mycobacterium tuberculosis; experiment: Antibacterial activity against Mycobacterium tuberculosis H37Rv by MABA; format: functional
[7] = tested on: Mycobacterium tuberculosis; experiment: Antibacterial activity against Mycobacterium tuberculosis H37Rv by resazurin dye-based assay; format: functional
Plasmodium falciparum [8] = experiment: Antimalarial activity against ring-stage multidrug-resistant Plasmodium falciparum Dd2 preincubated for 6 hrs followed by compound wash and measured after 66 hrs by Giemsa-staining based light microscopic analysis; format: functional, organism-based
Plasmodium falciparum [9] = experiment: Antimalarial activity against ring-stage chloroquine-susceptible Plasmodium falciparum 3D7 preincubated for 6 hrs followed by compound wash and measured after 66 hrs by Giemsa-staining based light microscopic analysis; format: functional, organism-based

Row | Structure (SMILES) | MIC [3] [µg/mL] | MIC (Mycobacterium kansasii [4]) [µg/mL] | MIC (Mycobacterium avium) [µg/mL] | MIC (Mycobacterium kansasii [5]) [µg/mL] | also measured
1 | O=C(Cn1nnc(-c2ccccc2)n1)NNC(=O)c1ccco1 |  |  |  |  | IC50 (Falcipain 2): 6.67 to 43.9 µM; IC50 [1]: 6.67 to 43.9 µM; IC50 (Plasmodium falciparum [2]): > 10 µM
2 | Cc1cc(NC(=O)Cn2nnc(-c3ccccc3NC(=O)c3ccccc3F)n2)no1 |  |  |  |  | IC50 (Falcipain 2): 6.67 to 43.9 µM; IC50 [1]: 6.67 to 43.9 µM; IC50 (Plasmodium falciparum [2]): > 10 µM
3 | Sc1nnnn1-c1ccccc1 | 250 to 500 (≈ 1400 to 2810 µM) | 250 to 500 (≈ 1400 to 2810 µM) | 250 to 500 (≈ 1400 to 2810 µM) | 250 to 500 (≈ 1400 to 2810 µM) | 
4 | Sc1nnnn1-c1ccc(Cl)cc1 | 250 to 500 (≈ 1180 to 2350 µM) | 250 to 500 (≈ 1180 to 2350 µM) | 250 to 500 (≈ 1180 to 2350 µM) | 250 to 500 (≈ 1180 to 2350 µM) | 
5 | Sc1nnnn1-c1ccc(Cl)c(Cl)c1 | 250 to 500 (≈ 1010 to 2020 µM) | 250 to 500 (≈ 1010 to 2020 µM) | 250 to 500 (≈ 1010 to 2020 µM) | 250 to 500 (≈ 1010 to 2020 µM) | 
6 | c1ccc(CSc2nnnn2-c2ccccc2)cc1 | 8 to 250 (≈ 29.8 to 932 µM) | 8 to 250 (≈ 29.8 to 932 µM) | 8 to 250 (≈ 29.8 to 932 µM) | 8 to 250 (≈ 29.8 to 932 µM) | 
7 | Cc1ccc(-n2nnnc2SCCCCCCCOc2ccc3c(c2)CC[C@@H]2[C@@H]3CC[C@]3(C)C(=O)CC[C@@H]23)cc1 | ≥ 500 | ≥ 500 | ≥ 500 | ≥ 500 | 
8 | C[C@]12CC[C@@H]3c4ccc(OCCCCCCCSc5nnnn5-c5ccccc5)cc4CC[C@H]3[C@@H]1CCC2=O | ≥ 500 | ≥ 500 | ≥ 500 | ≥ 500 | 
9 | C[C@]12CC[C@@H]3c4ccc(OCCCCCCCSc5nnnn5-c5ccc(Cl)cc5)cc4CC[C@H]3[C@@H]1CCC2=O | ≥ 500 | ≥ 500 | ≥ 500 | ≥ 500 | 
10 | C[C@]12CC[C@@H]3c4ccc(OCCCCCCCSc5nnnn5-c5ccc(Cl)c(Cl)c5)cc4CC[C@H]3[C@@H]1CCC2=O | ≥ 500 | ≥ 500 | ≥ 500 | ≥ 500 | 
11 | Clc1ccc(-n2nnnc2SCc2ccccc2)cc1 | 8 to 250 (≈ 26.4 to 826 µM) | 8 to 250 (≈ 26.4 to 826 µM) | 8 to 250 (≈ 26.4 to 826 µM) | 8 to 250 (≈ 26.4 to 826 µM) | 
12 | Cc1ccc(-n2nnnc2S)cc1 | 250 to 500 (≈ 1300 to 2600 µM) | 250 to 500 (≈ 1300 to 2600 µM) | 250 to 500 (≈ 1300 to 2600 µM) | 250 to 500 (≈ 1300 to 2600 µM) | 
13 | Cc1ccc(-n2nnnc2SCc2ccccc2)cc1 | 8 to 250 (≈ 28.3 to 885 µM) | 8 to 250 (≈ 28.3 to 885 µM) | 8 to 250 (≈ 28.3 to 885 µM) | 8 to 250 (≈ 28.3 to 885 µM) | 
14 | COc1cc(-c2nnnn2S(=O)(=O)c2ccccc2)ccc1OCC(O)(Cn1cncn1)c1ccc(Cl)cc1Cl (configuration not stated) |  |  |  |  | IC50 (CHO-K1): > 150 µg/mL; MIC [6]: 25 µg/mL (≈ 41.5 µM)
15 | COc1ccc(S(=O)(=O)n2nnnc2-c2ccc(OCC(O)(Cn3cncn3)c3ccc(Cl)cc3Cl)c(OC)c2)cc1 (configuration not stated) |  |  |  |  | IC50 (CHO-K1): > 150 µg/mL; MIC [6]: 1.56 to 12.5 µg/mL (≈ 2.47 to 19.8 µM)
16 | O=C(Cn1nnnc1-c1ccccc1)NN1C(=O)C(Cl)C1c1ccc(Br)cc1 (configuration not stated) |  |  |  |  | MIC [7]: > 6.25 µg/mL
17 | COc1cc(-c2nnnn2S(=O)(=O)c2ccc(F)cc2)ccc1OCC(O)(Cn1cncn1)c1ccc(Cl)cc1Cl (configuration not stated) |  |  |  |  | IC50 (CHO-K1): > 150 µg/mL; MIC [6]: 1.56 to 12.5 µg/mL (≈ 2.51 to 20.1 µM)
18 | COc1cc(-c2nnnn2S(=O)(=O)c2ccc(OC(F)(F)F)cc2)ccc1OCC(O)(Cn1cncn1)c1ccc(F)cc1F (configuration not stated) |  |  |  |  | IC50 (CHO-K1): > 150 µg/mL
19 | O=C(Cn1nnnc1-c1ccccc1)NN1C(=O)C(Cl)C1c1ccccc1 (configuration not stated) |  |  |  |  | MIC [7]: > 6.25 µg/mL
20 | COc1ccc(C(=O)Nc2ccc(-c3nnn(CC(=O)Nc4cc(C)on4)n3)cc2)cc1 |  |  |  |  | IC50 (Falcipain 2): 6.67 to 43.9 µM; IC50 [1]: 6.67 to 43.9 µM; IC50 (Plasmodium falciparum [2]): > 10 µM
21 | Cn1nnc(NCC2CCC3(CC2)OOC2(O3)C3CC4CC(C3)CC2C4)n1 (configuration not stated) |  |  |  |  | IC50 (Plasmodium falciparum [8]): 0.0021 µM; IC50 (Plasmodium falciparum [9]): 0.0029 µM
22 | COc1ccc(NC(=O)Cn2nnc(-c3ccccc3NS(=O)(=O)c3ccc(NC(C)=O)cc3)n2)cc1 |  |  |  |  | IC50 (Falcipain 2): 6.67 to 43.9 µM; IC50 [1]: 6.67 to 43.9 µM; IC50 (Plasmodium falciparum [2]): > 10 µM
23 | COc1ccc(NC(=O)Cn2nnc(-c3ccccc3NC(=O)c3cc(OC)cc(OC)c3)n2)cc1 |  |  |  |  | IC50 (Falcipain 2): 6.67 to 43.9 µM; IC50 [1]: 6.67 to 43.9 µM; IC50 (Plasmodium falciparum [2]): > 10 µM
24 | COc1cc(-c2nnnn2S(=O)(=O)c2ccc(Br)cc2)ccc1OCC(O)(Cn1cncn1)c1ccc(F)cc1F (configuration not stated) |  |  |  |  | IC50 (CHO-K1): > 150 µg/mL; MIC [6]: 3.12 µg/mL (≈ 4.81 µM)
25 | CCCCOc1ccc(-c2nnn(CC(=O)c3ccc(Cl)cc3)n2)cc1 |  |  |  |  | IC50 (Falcipain 2): 6.67 to 43.9 µM; IC50 [1]: 6.67 to 43.9 µM; IC50 (Plasmodium falciparum [2]): > 10 µM
26 | COc1cc(-c2nnnn2S(=O)(=O)c2ccc(Br)s2)ccc1OCC(O)(Cn1cncn1)c1ccc(Cl)cc1Cl (configuration not stated) |  |  |  |  | IC50 (CHO-K1): > 150 µg/mL; MIC [6]: 1.56 µg/mL (≈ 2.27 µM)
